# From patent US6432987B1, “Substituted N-benzylindol-3-ylglyoxylic acid derivatives having antitumor action” (Zentaris AG, priority 1999, dated 2002)
# Tested on: tubulin
# Assay: tubulin polymerization assay
# Assay type: biochemical
# Settings: result in words only
# From the text: It was possible to show the activity of the present compounds in a tubulin polymerization assay.
compound,measurement,value
"Nc1ccc(Cn2cc(C(=O)C(=O)Nc3ccncc3)c3ccccc32)cc1 [Example D-68838, N-(Pyridin-4-yl)-[1-(4-aminobenzyl)indol-3-yl]glyoxyl-amide]",inhibition of the polymerization of tubulin,inhibits the polymerization of tubulin
